In PubChem BioAssay (NCI):
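Five concentrations, 48 hours, 96-well plates. Abbreviation: GI50, concentration required for 50% inhibition of growth. TGI: concentration producing complete growth inhibition.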

Experiments:
Assay in all cases: NCI-60 cell line screen, 48 h
ACHN renal = test system: ACHN renal
HCT-116 colon = test system: HCT-116 colon
MALME-3M melanoma = test system: MALME-3M melanoma
MCF7 breast = test system: MCF7 breast
NCI-H522 lung = test system: NCI-H522 lung
NCI/ADR-RES ovarian = test system: NCI/ADR-RES ovarian
OVCAR-8 ovarian = test system: OVCAR-8 ovarian
RXF 393 renal = test system: RXF 393 renal

Row | SMILES | GI50 (ACHN renal) [µM] | TGI (ACHN renal) [µM] | GI50 (HCT-116 colon) [µM] | TGI (HCT-116 colon) [µM] | GI50 (MALME-3M melanoma) [µM] | TGI (MALME-3M melanoma) [µM] | GI50 (MCF7 breast) [µM] | TGI (MCF7 breast) [µM] | GI50 (NCI-H522 lung) [µM] | TGI (NCI-H522 lung) [µM] | GI50 (NCI/ADR-RES ovarian) [µM] | TGI (NCI/ADR-RES ovarian) [µM] | GI50 (OVCAR-8 ovarian) [µM] | TGI (OVCAR-8 ovarian) [µM] | GI50 (RXF 393 renal) [µM] | TGI (RXF 393 renal) [µM]
1 | C/C(=C\c1ccn(-c2ccccc2N)n1)[C@@H]1C[C@@H]2O[C@]2(C)CCC[C@H](C)[C@H](O)[C@@H](C)C(=O)C(C)(C)[C@@H](O)CC(=O)O1 | 0.283 | > 50 | 0.0191 | > 50 | 0.127 | > 50 | 0.0168 | > 50 | 0.0511 | 0.386 | 0.154 | 7.21 | 0.0617 | > 50 | 0.0526 | 0.604
2 | CCCCCCCCCCCC1=NC(C)(C)CN1C(C)(C)CO | 3.01 | 10 | 1.56 | 3.06 | – | – | 2.48 | 5.64 | 1.84 | 4.02 | 2.41 | 5.76 | 3.33 | 13.4 | 2.26 | 4.48
3 | O=c1c2c([nH]c3nccn13)CCC2 | – | > 10 | – | > 10 | – | > 10 | – | > 10 | – | – | – | > 10 | – | > 10 | – | > 10
4 | O=[N+]([O-])c1cccc(/C=N/NC2=CS(=O)(=O)C=C2)c1 | – | > 100 | – | > 100 | – | > 100 | – | > 100 | – | > 100 | – | > 100 | – | > 100 | – | > 100
5 | CN(C)c1ccc(Nc2c3ccccc3nc3ccccc23)cc1 | 0.532 | 2.27 | 0.38 | 1.7 | 1.2 | 3.03 | 0.471 | 3.44 | 0.685 | 2.52 | 1.12 | 2.93 | 0.868 | 3.25 | 1.21 | 2.61
6 | COC(=O)c1cc(-c2ccccc2)[nH]c1N/N=C/c1c(Cl)cccc1Cl | 0.858 | 26.4 | 0.318 | 1.71 | 0.34 | 6.67 | 0.266 | 4.85 | 0.26 | – | 0.22 | 0.77 | 0.473 | > 100 | 0.616 | 52
7 | Nc1ccn(C2CC(F)C(CO)O2)c(=O)n1 (stereo not drawn) | > 100 | > 100 | > 100 | > 100 | > 100 | > 100 | > 100 | > 100 | > 100 | > 100 | > 100 | > 100 | > 100 | > 100 | > 100 | > 100
8 | c1ccc(-c2nn3c(c2-c2ccnc4cc(OCCN5CCOCC5)ccc24)CCC3)nc1 | 36.3 | > 100 | 31 | > 100 | 90.3 | > 100 | 12.9 | > 100 | 44.8 | > 100 | 52.4 | > 100 | > 82.6 | > 100 | > 100 | > 100
9 | CN1C(=O)c2ccc3ccccc3c2C1=O | – | > 100 | – | > 100 | – | – | – | > 100 | – | > 100 | – | > 100 | – | > 100 | – | 96.6
10 | COc1ccc2c(c1)/C(=C\c1ccncc1)C(=O)N2 | 4.41 | 15.9 | 3.72 | 17.8 | – | – | 8.68 | > 100 | 4 | 9.18 | 12.3 | 67.1 | 10.3 | 32.7 | – | –
11 | Cc1cn2c(/C=C3/C(=O)Nc4c3ccc3ccccc43)c(C(F)(F)F)nc2s1 | 6.24 | > 100 | 2.19 | > 100 | – | – | 0.449 | > 100 | 0.584 | > 100 | 0.456 | > 100 | 4.65 | > 100 | 2.24 | 8.35
12 | C#C[C@]1(O)CC[C@H]2[C@@H]3CC=C4c5sc(Nc6cc(F)ccc6F)nc5CC[C@]4(C)[C@H]3CC[C@@]21C | 1.44 | 2.9 | – | – | 1.4 | 2.97 | 1.5 | 3.26 | 2.08 | 5.6 | 2.79 | 13.8 | 2.63 | 12.1 | 0.213 | 0.728
13 | O=S(=O)(NC1CCCCC1)c1ccc2c(c1)OCCOCCOCCOCCO2 | – | > 100 | – | > 100 | – | > 100 | – | > 100 | – | > 100 | – | – | – | > 100 | – | –
14 | COC(=O)c1c2c(c(C)[n+]([O-])c1C)C(=O)C=C(NCc1ccccc1)C2=O | – | – | 0.303 | 1.05 | 0.147 | 0.353 | 0.26 | 0.892 | 1.33 | 3.25 | 0.453 | 2.95 | 0.408 | 2.16 | 1.23 | 2.73
15 | Cc1ccc(/C=C(\C#N)c2cc3ccccc3n2C)cc1 | 0.783 | > 100 | 0.361 | > 100 | – | – | 0.305 | > 100 | 0.269 | 16.2 | 0.361 | > 100 | 0.565 | > 100 | 0.172 | 0.565
16 | COc1ccc(-c2cc(=O)n(-c3nc4ccccc4[nH]3)[nH]2)cc1OC | 5.72 | > 100 | 5.83 | > 100 | – | – | 4.74 | > 100 | 2.96 | 9.14 | 3.57 | 33.3 | 4.43 | 63.5 | 1.24 | 11.9
17 | CC(C)C1CO[C@]2(C)CCC(=O)N12 (stereo partly drawn) | – | > 100 | – | > 100 | – | > 100 | – | – | – | > 100 | – | – | – | > 100 | – | > 100
18 | CCCn1c2c(c3c(O)cccc31)C(=O)c1ccccc1-2 | 14.9 | 45.1 | 29.2 | > 100 | 64.6 | > 100 | 58 | > 100 | 23 | > 100 | 13.4 | 81.6 | 22.5 | > 100 | – | –
